According to patent US9409944B2, “Compositions and methods for inhibiting proteases” (The Regents of the University of California, priority 2011, dated 2016):

What was measured:
[1] = system: human lung adenocarcinoma (H460) cells; experiment: Cytotoxicity to human lung adenocarcinoma (H460) cells; assay type: cell-based; settings: NCI-H460
From the text: (§1) We discovered the new natural products, compounds having formulas 1 and 2, from a collection of marine cyanobacteria obtained from Curaçao in the Netherland Antilles. We were led to isolate this compound from cancer cell toxicity of the extract and semi-purified fractions.

[2] = molecular target: beta 5 subunit (chymotrypsin-like) of the Saccharomyces cerevisiae 20S proteasome (Saccharomyces cerevisiae, UniProt P30656); experiment: Inhibition of the beta 5 subunit (chymotrypsin-like) of the 20S proteasome; assay type: biochemical; settings: S. cerevisiae 20S proteasome, pure compound
From the text: as §1

Structure (SMILES) | EC50 [1] | IC50 [2]
CCCCCC(=O)N[C@H](C(=O)N[C@@H](CC[S+](C)[O-])C(=O)N[C@@H](CC(C)C)C(=O)[C@@]1(C)CO1)C(C)C (mixture of isomers) [Compound 1] | 14.5 nM | 5.3 ± 0.5 nM
C[C@@]12OC(=O)[C@]1([C@@H](O)[C@@H]1C=CCCC1)NC(=O)[C@@H]2CCCl [salinosporamide A, reference compound] |  | 1.4 ± 0.2 nM
